The supplement of paper PMC11061612

Assays:
Carboplatin = compound: C1CC(C1)(C(=O)[O-])C(=O)[O-].N.N.[Pt+2] [Carboplatin]; conditions: max 10 µM
Outline: (§1)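 Plates with 1536 wells received cancer cell lines in 7.5 μl of DMEM/F12 or RPMI containing 10% FBS. After 24 hours at 37°C and 5% CO2, cells were dosed for 72 hours with final DMSO typically 0.2%, and viability was read by CellTiter-Glo 2.0 luminescence scaled between blank-well and DMSO-well means. The single-agent IC50 was taken from a logistic fit of the dose responses made with a non-linear mixed effects model, that logistic curve having two parameters.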

AZD5363 = compound: C1CN(CCC1(C(=O)N[C@@H](CCO)C2=CC=C(C=C2)Cl)N)C3=NC=NC4=C3C=CN4 [AZD5363]; conditions: max 10 µM
Outline: as §1

AZD1775 = compound: C=CCn1c(=O)c2cnc(Nc3ccc(N4CCN(C)CC4)cc3)nc2n1-c1cccc(C(C)(C)O)n1 [AZD1775]; conditions: max 3 µM
Outline: as §1

Trametinib = compound: CC(=O)Nc1cccc(-n2c(=O)n(C3CC3)c(=O)c3c(Nc4ccc(I)cc4F)n(C)c(=O)c(C)c32)c1 [Trametinib]; conditions: max 1 µM
Outline: as §1

Paclitaxel = compound: CC(=O)O[C@H]1C(=O)[C@@]2(C)[C@H]([C@H](OC(=O)c3ccccc3)[C@]3(O)C[C@H](OC(=O)[C@H](O)[C@@H](NC(=O)c4ccccc4)c4ccccc4)C(C)=C1C3(C)C)[C@]1(OC(C)=O)CO[C@@H]1C[C@@H]2O [Paclitaxel]; conditions: max 3 µM
Outline: as §1

Palbociclib = compound: CC(=O)c1c(C)c2cnc(Nc3ccc(N4CCNCC4)cn3)nc2n(C2CCCC2)c1=O [Palbociclib]; conditions: max 10 µM
Outline: as §1

AZD1390 = compound: CC(C)n1c(=O)n(C)c2cnc3cc(F)c(-c4ccc(OCCCN5CCCCC5)nc4)cc3c21 [AZD1390]; conditions: max 0.3 µM
Outline: as §1

Venetoclax = compound: CC1(C)CCC(CN2CCN(c3ccc(C(=O)NS(=O)(=O)c4ccc(NCC5CCOCC5)c([N+](=O)[O-])c4)c(Oc4cnc5[nH]ccc5c4)c3)CC2)=C(c2ccc(Cl)cc2)C1 [Venetoclax]; conditions: max 1 µM
Outline: as §1

Dasatinib = compound: CC1=C(C(=CC=C1)Cl)NC(=O)C2=CN=C(S2)NC3=CC(=NC(=N3)C)N4CCN(CC4)CCO [Dasatinib]; conditions: max 2 µM
Outline: as §1

SG3199 = compound: CC1=CN2[C@@H](C1)C=NC3=CC(=C(C=C3C2=O)OC)OCCCCCOC4=C(C=C5C(=C4)N=C[C@@H]6CC(=CN6C5=O)C)OC [SG3199]; conditions: max 0.001 µM
Outline: as §1

AZD2811 = compound: CCN(CCO)CCCOc1ccc2c(Nc3cc(CC(=O)Nc4cccc(F)c4)[nH]n3)ncnc2c1 [AZD2811]; conditions: max 1 µM
Outline: as §1

SN-38 = compound: CCc1c2c(nc3ccc(O)cc13)-c1cc3c(c(=O)n1C2)COC(=O)[C@]3(O)CC [SN-38]; conditions: max 0.3 µM
Outline: as §1

AZD0156 = compound: CN(C)CCCOc1ccc(-c2ccc3ncc4c(c3c2)n(C2CCOCC2)c(=O)n4C)cn1 [AZD0156]; conditions: max 3 µM
Outline: as §1

AZD4320 = compound: CN(CC[C@H](CSC1=CC=CC=C1)NC2=C(C=C(C=C2)S(=O)(=O)NC(=O)C3=CC=C(C=C3)N4CCC(CC4)[C@H](C5=CC=CC=C5C6=CC=C(C=C6)Cl)O)S(=O)(=O)C(F)(F)F)CCO [AZD4320]; conditions: max 1 µM
Outline: as §1

Alisertib = compound: COc1cc(Nc2ncc3c(n2)-c2ccc(Cl)cc2C(c2c(F)cccc2OC)=NC3)ccc1C(=O)O [Alisertib]; conditions: max 10 µM
Outline: as §1

Etoposide = compound: COc1cc([C@@H]2c3cc4c(cc3[C@@H](O[C@@H]3O[C@@H]5CO[C@@H](C)O[C@H]5[C@H](O)[C@H]3O)[C@H]3COC(=O)[C@H]23)OCO4)cc(OC)c1O [Etoposide]; conditions: max 10 µM
Outline: as §1

Gefitinib = compound: COc1cc2ncnc(Nc3ccc(F)c(Cl)c3)c2cc1OCCCN1CCOCC1 [Gefitinib]; conditions: max 10 µM
Outline: as §1

Prexasertib = compound: COc1cccc(OCCCN)c1-c1cc(Nc2cnc(C#N)cn2)n[nH]1 [Prexasertib]; conditions: max 1 µM
Outline: as §1

Doxorubicin = compound: COc1cccc2c1C(=O)c1c(O)c3c(c(O)c1C2=O)C[C@@](O)(C(=O)CO)C[C@@H]3O[C@H]1C[C@H](N)[C@H](O)[C@H](C)O1 [Doxorubicin]; conditions: max 1 µM
Outline: as §1

AZD5153 = compound: COc1nnc2ccc(N3CCC(c4ccc(OCCN5CCN(C)C(=O)[C@H]5C)cc4)CC3)nn12 [AZD5153]; conditions: max 1 µM
Outline: as §1

Lapatinib = compound: CS(=O)(=O)CCNCc1ccc(-c2ccc3ncnc(Nc4ccc(OCc5cccc(F)c5)c(Cl)c4)c3c2)o1 [Lapatinib]; conditions: max 10 µM
Outline: as §1

AZD8186 = compound: C[C@@H](Nc1cc(F)cc(F)c1)c1cc(C(=O)N(C)C)cc2c(=O)cc(N3CCOCC3)oc12 [AZD8186]; conditions: max 10 µM
Outline: as §1

Crizotinib = compound: C[C@@H](Oc1cc(-c2cnn(C3CCNCC3)c2)cnc1N)c1c(Cl)ccc(F)c1Cl [Crizotinib]; conditions: max 10 µM
Outline: as §1

Savolitinib = compound: C[C@@H](c1ccc2nccn2c1)n1nnc2ncc(-c3cnn(C)c3)nc21 [Savolitinib]; conditions: max 1 µM
Outline: as §1

AZD6738 = compound: C[C@@H]1COCCN1C2=NC(=NC(=C2)C3(CC3)[S@](=N)(=O)C)C4=C5C=CNC5=NC=C4 [AZD6738]; conditions: max 10 µM
Outline: as §1

AZD5991 = compound: Cc1c2c(nn1C)CSCc1cc(n(C)n1)CSc1cc(c3ccccc3c1)OCCCc1c(C(=O)O)n(C)c3c-2c(Cl)ccc13 [AZD5991]; conditions: max 1 µM
Outline: as §1

AZD7648 = compound: Cc1cc2ncnn2cc1Nc1ncc2c(n1)n(C1CCOCC1)c(=O)n2C [AZD7648]; conditions: max 10 µM
Outline: as §1

Taselisib = compound: Cc1nc(-c2cn3c(n2)-c2ccc(-c4cnn(C(C)(C)C(N)=O)c4)cc2OCC3)n(C(C)C)n1 [Taselisib]; conditions: max 10 µM
Outline: as §1

Selumetinib = compound: Cn1cnc2c(F)c(Nc3ccc(Br)cc3Cl)c(C(=O)NOCCO)cc21 [Selumetinib]; conditions: max 10 µM
Outline: as §1

SRA737 = compound: N#Cc1cnc(Nc2cc(NC[C@H]3CNCCO3)c(C(F)(F)F)cn2)cn1 [SRA737]; conditions: max 10 µM
Outline: as §1

MK-2206 = compound: NC1(c2ccc(-c3nc4ccn5c(=O)[nH]nc5c4cc3-c3ccccc3)cc2)CCC1 [MK-2206]; conditions: max 10 µM
Outline: as §1

Gemcitabine = compound: Nc1ccn([C@@H]2O[C@H](CO)[C@@H](O)C2(F)F)c(=O)n1 [Gemcitabine]; conditions: max 0.3 µM
Outline: as §1

[1] = compound: O=C(Nc1ccc2[nH]nc(-c3ccncc3)c2c1)[C@@H]1CCN(CC(=O)N2CCN(c3ccc(-c4ncccn4)cc3)CC2)C1; conditions: max 5 µM
Outline: as §1

Olaparib = compound: O=C(c1cc(Cc2n[nH]c(=O)c3ccccc23)ccc1F)N1CCN(C(=O)C2CC2)CC1 [Olaparib]; conditions: max 10 µM
Outline: as §1

5-Fluorouracil = compound: O=c1[nH]cc(F)c(=O)[nH]1 [5-Fluorouracil]; conditions: max 20 µM
Outline: as §1

Cell Line | IC50, cell viability 72 h (Carboplatin) [µM] | IC50, cell viability 72 h (AZD5363) [µM] | IC50, cell viability 72 h (AZD1775) [nM] | IC50, cell viability 72 h (Trametinib) [nM] | IC50, cell viability 72 h (Paclitaxel) [nM] | IC50, cell viability 72 h (Palbociclib) [µM] | IC50, cell viability 72 h (AZD1390) [nM] | IC50, cell viability 72 h (Venetoclax) [nM] | IC50, cell viability 72 h (Dasatinib) [nM] | IC50, cell viability 72 h (SG3199) [nM] | IC50, cell viability 72 h (AZD2811) [nM] | IC50, cell viability 72 h (SN-38) [nM] | IC50, cell viability 72 h (AZD0156) [nM] | IC50, cell viability 72 h (AZD4320) [nM] | IC50, cell viability 72 h (Alisertib) [µM] | IC50, cell viability 72 h (Etoposide) [nM] | IC50, cell viability 72 h (Gefitinib) [µM] | IC50, cell viability 72 h (Prexasertib) [nM] | IC50, cell viability 72 h (Doxorubicin) [nM] | IC50, cell viability 72 h (AZD5153) [nM] | IC50, cell viability 72 h (Lapatinib) [µM] | IC50, cell viability 72 h (AZD8186) [µM] | IC50, cell viability 72 h (Crizotinib) [µM] | IC50, cell viability 72 h (Savolitinib) [nM] | IC50, cell viability 72 h (AZD6738) [µM] | IC50, cell viability 72 h (AZD5991) [nM] | IC50, cell viability 72 h (AZD7648) [µM] | IC50, cell viability 72 h (Taselisib) [µM] | IC50, cell viability 72 h (Selumetinib) [µM] | IC50, cell viability 72 h (SRA737) [µM] | IC50, cell viability 72 h (MK-2206) [µM] | IC50, cell viability 72 h (Gemcitabine) [nM] | IC50, cell viability 72 h [1] [µM] | IC50, cell viability 72 h (Olaparib) [µM] | IC50, cell viability 72 h (5-Fluorouracil) [µM]
KYSE-220 (Esophageal Squamous Cell Carcinoma) | > 10 | > 10 | 355 | 287 | 42.4 | > 10 | > 300 | > 1000 | > 2000 | > 1 | > 1000 | 17.5 | > 3000 | > 1000 | 9.2 | 2520 | > 10 | 16.3 | 94.3 | 358 | 4.25 | > 10 | 5.48 | > 1000 | 1.19 | > 1000 | > 10 | 1.22 | 9.2 | > 10 | > 10 | 33 | > 5 | > 10 | > 20
LU-165 (Small Cell Lung Carcinoma) | > 10 | > 10 | 2940 | > 1000 | > 3000 | > 10 | > 300 | > 1000 | > 2000 | > 1 | > 1000 | > 300 | > 3000 | > 1000 | > 10 | > 10000 | > 10 | 220 | > 1000 | > 1000 | > 10 | > 10 | > 10 | > 1000 | > 10 | > 1000 | > 10 | > 10 | > 10 | > 10 | > 10 | > 300 | > 5 | > 10 | > 20
MDA-MB-436 (Breast Carcinoma) | > 10 | > 10 | > 3000 | > 1000 | > 3000 | > 10 | > 300 | > 1000 | > 2000 | > 1 | > 1000 | 207 | > 3000 | > 1000 | > 10 | > 10000 | > 10 | > 1000 | > 1000 | > 1000 | > 10 | > 10 | > 10 | > 1000 | > 10 | > 1000 | > 10 | > 10 | > 10 | > 10 | > 10 | > 300 | > 5 | > 10 | > 20
MHH-ES-1 (Ewing's Sarcoma) | > 10 | > 10 | 649 | > 1000 | 5.4 | > 10 | > 300 | > 1000 | > 2000 | > 1 | 215 | 3.05 | > 3000 | > 1000 | 0.319 | 2700 | > 10 | 212 | 425 | 614 | > 10 | > 10 | 3.99 | > 1000 | > 10 | > 1000 | > 10 | 5.81 | > 10 | > 10 | > 10 | 15.9 | > 5 | 4.15 | > 20
NCI-H441 (Lung Adenocarcinoma) | > 10 | > 10 | > 3000 | > 1000 | 2240 | > 10 | > 300 | > 1000 | > 2000 | > 1 | > 1000 | 112 | > 3000 | > 1000 | > 10 | > 10000 | > 10 | 666 | > 1000 | > 1000 | > 10 | > 10 | > 10 | > 1000 | > 10 | > 1000 | > 10 | > 10 | > 10 | > 10 | > 10 | 299 | > 5 | > 10 | > 20
